Legend:
HIV-1 strain YU2 = experiment: HIV-1 p24 production in infected monocyte derived macrophages (ELISA); type: cell-based; settings: Human immunodeficiency virus 1, Primary macrophage; primary macrophages infected with Yu-2, at 0.1 μM; read-out: inhibition levels of virus replication (p24)
From the text: FIG. 1. Potency of quinoline derivatives to inhibit HIV-1 production in PBMC- and macrophages-infected cells. […] Each point represents 6 donors. B) HIV-1 strain YU2 was used to infect triplicate of monocyte derived-macrophages from different donors in the absence or presence of increasing concentrations of Compound 22. […] Each point represents 8 donors. To generate monocyte derived macrophages (MDMs), monocytes were isolated using CD14 microbeads (catalog no. 130-050-201; Miltenyi) and cultured in X-VIVO10 medium (Lonza) supplemented with GM-CSF 1000 U/ml and M-CSF 100 ng/ml for 6 days. Monocytes were seeded at a cell count of 50,000 cells per well in a 96 well plate. After 6 days medium was replaced with X-VIVO10 w/o Cytokines. After 2 days Macrophages were treated with Compound 22 and/or its N-glucuronide metabolite o/n and next day infected with Yu-2 virus for 6 hrs, washed with PBS and cultured in medium containing the compounds for 12 days. Supernatant for p24 Elisa was collected 2 times a week. Cells were treated with 0.01 μM up to 30 μM and p24 antigen levels were monitored in culture supernatant over a 12 day period. Cell culture supernatant HIV p24 titration was performed by ELISA with Ingen Innotest kit (Ingen Ref 80564) according to the manufacturer's instructions.

primary macrophages = experiment: Cell viability of treated primary macrophages; type: cell-based, human; settings: macrophages under treatment (data not shown)
Procedure: To generate monocyte derived macrophages (MDMs), monocytes were isolated using CD14 microbeads (catalog no. 130-050-201; Miltenyi) and cultured in X-VIVO10 medium (Lonza) supplemented with GM-CSF 1000 U/ml and M-CSF 100 ng/ml for 6 days. Monocytes were seeded at a cell count of 50,000 cells per well in a 96 well plate. After 6 days medium was replaced with X-VIVO10 w/o Cytokines. After 2 days Macrophages were treated with Compound 22 and/or its N-glucuronide metabolite o/n and next day infected with Yu-2 virus for 6 hrs, washed with PBS and cultured in medium containing the compounds for 12 days. Supernatant for p24 Elisa was collected 2 times a week.

PBMCs = experiment: Lymphocyte populations in treated PBMCs; type: cell-based, human; settings: PBMCs under treatment
[1] = system: HIV-1 strains (clade B, clade C and recombinants clades); experiment: p24 inhibition in PBMCs infected with different HIV-1 strains (patient isolates); type: cell-based; settings: 5 μM, 6 days pi, subtype B, C and recombinant viruses
Procedure: FIG. 2. HIV p24 inhibition of Compound 22 from different HIV-1 strains. A) Different HIV-1 strains (clade B, clade C and recombinants clades) were used to infect PBMCs from three different donors in the absence of presence of 5 μM of Compound 22. Supernatant was harvested 6 days pi and viral capsid protein p24 antigen was quantitated using standard ELISA protocol.

JRCSF HIV-1 strain = experiment: Reconstituted SCID mice infected with JRCSF HIV-1 strain; type: in vivo, mouse
Procedure: FIG. 3. Efficacy of Compound 22 to inhibit viral replication in humanized mice. A) Reconstituted SCID mice were infected with JRCSF HIV-1 strain by intraperitoneal injection. Control group received by gavage labrafil and 5% DMSO (n=15) and treated group 20 mg/kg b.i.d of Compound 22 in labrafil and 5% DMSO (n=14) for 15 days. Two independent experiments were performed with 5 and 10 reconstituted mice for each group. Viral load was assessed by measuring viral RNA using the Amplicor HIV-1 Monitor from Roche. B) FACS analysis was performed on peritoneal wash at day 15 post-treatment to assess the CD8/CD4 ratio. C) Engrafted NSG humanized mice were treated by oral gavage with Compound 22 at either 20 mg or 40 mg/kg once a day for 30 days and indicated lymphocyte populations (CD45+; CD4+ and CD8+) were monitored by FACS analysis. D) NSG humanized mice were infected with the YU2 HIV-1 virus and treated either by oral gavage with Compound 22 at 40 mg/kg once a day for 30 days or by HAART (3TC-Tenofovir-Raltegravir and AZT). […] Viral load was assessed by measuring viral RNA using the Amplicor HIV-1 Monitor from Roche. […]
Briefly, TCID50 (tissue culture infectious dose 50%) was determined by infecting human CD8+ T-cell-depleted peripheral blood mononuclear cells (PBMCs) from three donors which were stimulated by addition of IL-2, PHA and anti-CD3 beads (Dynal 11131D, Life Technologies). […] HIV RNA plasma levels were measured by RT-PCR (Amplicor HIV-1 test or AmpliPrep/COBAS TaqMan HIV-1 Test, Roche) at various times after infection.
Cell suspensions were labeled with anti-human monoclonal antibodies (mAb) targeting the following cell-surface markers: CD45-FITC, CD3-PE, CD4-Pe Cy7, CD8-BV421 and CD19-APC (all from Biolegend). Washing and reagent dilutions were done with FACS buffer (PBS containing 2% fetal calf serum and 0.05% sodium azide (NaN3). All acquisitions were performed on a Cyan ADP (Beckman Coulter) flow cytometer. Data were analyzed with FlowJo software (Ashland, Oreg.). Cellular debris and dead cells were excluded by their light-scattering characteristics.

[2] = system: lymphocyte populations (CD45+; CD4+ and CD8+); experiment: Lymphocyte populations in engrafted humanized mice treated for 30 days; type: in vivo; settings: 20 mg/kg or 40 mg/kg for one month, compared to controls without treatment
Procedure: NOD.scid.IL2R−/− (NSG) mice were bred and maintained in individual ventilated cages and were fed autoclaved food and water.
Briefly, newborn (<5 days old) NSG mice received sub-lethal (1Gy) total body irradiation with a Cs source, and then received 2×105 transduced or untransduced CD34+ human HSCs using a 50 μl Hamilton syringe via the intrahepatic (i.h.) route. All manipulations of NSG-HIS mice were performed under laminar flow. […] Mice were monitored three times a week for symptoms or signs of adverse events, according to a standard score sheet.

YU2 HIV-1 virus = experiment: NSG humanized mice infected with YU2 HIV-1 virus, viral load; type: in vivo, mouse
Procedure: All manipulations of NSG-HIS mice were performed under laminar flow. Gavage of mice was performed daily with a stainless steel gavage needle (Straight 22 Gauge, 1.4 inch in length). […] Mice were monitored three times a week for symptoms or signs of adverse events, according to a standard score sheet.
Mice were infected intraperitoneally i.p. with JR-CSF, 1×10^3 TCID50 per mouse and HIV YU-2, 1×106 TCID50 per mouse. HIV RNA plasma levels were measured by RT-PCR (Amplicor HIV-1 test or AmpliPrep/COBAS TaqMan HIV-1 Test, Roche) at various times after infection.

[3] = system: resistant mutants of NL4.3 strain (K103N, K65R and M184V); settings: human PBMCs, NL4.3 mutants K103N
[4] = 20 mg/kg twice a day, FACS at day 15

For `FC(F)(F)Oc1ccc(Nc2ccc3cccc(Cl)c3n2)cc1` [Compound 22, 8-chloro-N-(4-(trifluoromethoxy)phenyl)quinolin-2-amine], the inhibition at 0.1 µM (HIV-1 strain YU2) was no more than 90%, the cell viability (primary macrophages) was “not decreased” and the “populations of lymphocytes present in PBMCs” value (PBMCs) was “did not alter”. For the same molecule, the “inhibitory effect on HIV-1 subtypes (p24)” value [1] was “strong inhibitory effect”, the “viral load (viral RNA)” value (JRCSF HIV-1 strain; 20 mg/kg twice a day oral gavage, 15 days of treatment) was “significantly reduce the viral load” and the “CD8+/CD4+ ratio” value (JRCSF HIV-1 strain; [4]) was “restores CD8+/CD4+ ratio back to that of non-infected mice”. For the same molecule, the “depletion of CD4+ cells following infection” value (JRCSF HIV-1 strain; [4]) was “prevents depletion of CD4+ cells”, the “engraftment values of CD45+ cells and ratio of CD8+/CD4+” value [2] was “neither alters engraftment values of CD45+ cells nor the ratio of CD8+/CD4+” and the “viral load during treatment” value (YU2 HIV-1 virus; 40 mg/kg daily, 30 days of treatment) was “reduced the viral load”. The “time the viral load remained low after treatment termination” value (YU2 HIV-1 virus; after 30 days of treatment) was “at least 50 days” and the “inhibition of replication of viral strains harbouring resistance mutations (RT activity)” value [3] was “very efficiently inhibits”.

From patent US10806729B2, “Quinoline derivatives for use in the treatment or prevention of viral infection” (ABIVAX, priority 2015, dated 2020)
